Assay results as given in US20240066057A1, “METHOD FOR TREATING PAIN USING VANADIUM COMPOUNDS” (HUNAN FANGSHENGTAI MEDICAL TECHNOLOGY CO., LTD, priority 2020, published 2024).
Entries after “also recorded” stand apart in the source; their conditions may differ.

Tests used:
[1] = tested on: mice that suffered from pain due to induced inflammation; conditions: intrathecal injection, inflammatory pain; cited from earlier work
[2] = tested on: Kunming mice with CFA-induced inflammation; assay: Von Frey test (50% paw withdrawal threshold) in CFA-induced inflammatory pain mouse model; assay type: in vivo
Experimental: 10 μL of complete Freund's adjuvant (CFA) was injected into the left hind foot of mice (♂ Kunming mice, 22 g to 40 g) to induce inflammation. 24 hours after the injection, a Von Frey test was performed to determine a pain threshold. That is, under the guidance of Dixon's Up-Down method, Von Frey fibers were used to induce the mechanical paw withdrawal of the mice, and data were collected and calculated to obtain their 50% paw withdrawal thresholds (paw withdrawal threshold or PWT for short, i.e. pain threshold). Mice were then divided into different groups, including a normal saline group, a positive control group, and a drug group, which were intraperitoneally injected with normal saline, an aspirin (acetylsalicylic acid, or ASA) solution and a solution of compound for testing respectively. A Von Frey test was then performed to monitor changes in pain threshold.
Mice were divided into three groups: a blank control group, an aspirin (ASA) group, and a drug group. In blank control group, the mice were given normal saline, deionized water or deionized water containing ≤5% DMSO at the same volume as that in the drug group. In ASA group, the mice were given the known analgesic drug ASA as the positive control for tested compounds. In drug group, the mice were given compounds for testing accordingly. Due attention was paid to observe whether the pain threshold rose, the period during which the rise was maintained and the magnitude of the rise, after the injection of a tested compound solution.

[3] = tested on: Kunming mice with CFA-induced inflammation; assay: Effective concentration and plateau experiment of vanadium compounds, tail vein injection, mouse pain model; assay type: in vivo
[4] = tested on: Kunming mice with CFA-induced inflammation; assay: Von Frey test (50% paw withdrawal threshold) in CFA-induced inflammatory pain mouse model; assay type: in vivo; conditions: Example 10; G1 injected through the tail vein 0.49 mg/kg (atomic mass of vanadium); ASA group as control
[5] = Plateau experiment, dose (vanadium) A5/G3 0.25, A1/G1/H1 0.49, A4/G2/H2 0.97, H3 1.9 mg/kg, 6 samples, listed as G1
[6] = Example 3, intraperitoneal injection, A1 0.97 mg/kg (atomic mass of vanadium), S about 250 mg/kg
[7] = Example 5, intraperitoneal injection, C 1.9 mg/kg (atomic mass of vanadium), S about 250 mg/kg
[8] = Example 6, intraperitoneal injection, D 1.9 mg/kg, S about 250 mg/kg
[9] = Example 7, intraperitoneal injection, B 0.97 mg/kg (atomic mass of vanadium), S about 250 mg/kg
[10] = Example 8, intraperitoneal injection, E 0.97 mg/kg (atomic mass of vanadium), ASA about 250 mg/kg
[11] = Example 9, intraperitoneal injection, F 0.97 mg/kg (atomic mass of vanadium), ASA about 250 mg/kg
[12] = Example 11 (BEOV), intraperitoneal injection, I about 0.97 mg/kg (atomic mass of vanadium)
[13] = Example 11 (BMOV), intraperitoneal injection, H1 about 0.97 mg/kg (atomic mass of vanadium)
[14] = Example 12, intraperitoneal injection, J about 0.97 mg/kg (atomic mass of vanadium)
[15] = Example 13, intraperitoneal injection, K about 0.97 mg/kg (atomic mass of vanadium)
[16] = Example 14, intraperitoneal injection, L about 0.97 mg/kg (atomic mass of vanadium)
[17] = Example 15, intraperitoneal injection, M about 0.97 mg/kg (atomic mass of vanadium)
[18] = Example 16, intraperitoneal injection, N about 0.97 mg/kg (atomic mass of vanadium)
[19] = Example 17, intraperitoneal injection, O about 0.97 mg/kg (atomic mass of vanadium)
[20] = Example 18, intraperitoneal injection, P about 0.97 mg/kg (atomic mass of vanadium)
[21] = Example 19, intraperitoneal injection, Q about 0.97 mg/kg (atomic mass of vanadium)
[22] = Example 20, intraperitoneal injection, R about 0.97 mg/kg (atomic mass of vanadium)

[Na+].[Na+].[Na+].[O]=[V]([O-])([O-])[O-] [Solution A, Sodium orthovanadate]
Analgesic effect [1]: found the analgesic effect
Analgesic effect ([2]; mouse, in vivo, ip): have an analgesic effect
Effective duration compared with aspirin (ASA) ([2]; mouse, in vivo, ip): significantly longer duration of action than that of ASA; also recorded: longer than that of aspirin
Minimum effective dose ([3]; mice): about 1.0×10^−3 mg/kg
Blood concentration in mice equivalent to the plateau dose ([3]; plateau dose 0.49 mg/kg): 140 µM

O=S(=O)([O-])[O-].[O]=[V+2] [Solution G1, Vanadyl sulfate]
Duration [3, 5]: >60 min
Maximum analgesic intensity (mean) [3, 5]: ~0.49 g
Duration [4]: >60 min
Onset time [4]: 0 to 15 after injection min

CC(=O)Oc1ccccc1C(=O)O [Solution S, acetylsalicylic acid, reference compound]
Duration [2, 6]: <45 min
Onset time [2, 6]: 15 to 30 after injection min
Duration [2, 7]: <45 min
Onset time [2, 7]: 15 to 30 after injection min
Duration ([2]; Example 5, intraperitoneal injection, C 1.9 mg/kg (atomic mass of vanadium), S about 250 mg/kg, listed as ASA): < 45 min
Duration [2, 8]: <45 min
Onset time [2, 8]: 15 to 30 after injection min
Duration ([2]; Example 6, intraperitoneal injection, D 1.9 mg/kg, S about 250 mg/kg, listed as ASA): < 45 min
Duration [2, 9]: <45 min
Onset time [2, 9]: 15 to 30 after injection min
Duration ([2]; Example 7, intraperitoneal injection, B 0.97 mg/kg (atomic mass of vanadium), S about 250 mg/kg, listed as ASA): < 45 min
Duration [2, 10]: <45 min
Onset time [2, 10]: 15 to 30 after injection min
Duration ([2]; Example 8, intraperitoneal injection, E 0.97 mg/kg (atomic mass of vanadium), ASA about 250 mg/kg, listed as ASA): < 45 min
Duration [2, 11]: <45 min
Onset time [2, 11]: 15 to 30 after injection min
Duration ([2]; Example 9, intraperitoneal injection, F 0.97 mg/kg (atomic mass of vanadium), ASA about 250 mg/kg, listed as ASA): < 45 min
Duration [2, 12]: <45 min
Onset time [2, 12]: 15 to 30 after injection min
Duration [2, 13]: <45 min
Onset time [2, 13]: 0 to 15 after injection min
Duration [2, 14]: <45 min
Onset time [2, 14]: 15 to 30 after injection min
Duration [2, 15]: <45 min
Onset time [2, 15]: 0 to 15 after injection min
Duration [2, 16]: <45 min
Onset time [2, 16]: 15 to 30 after injection min
Duration [2, 17]: <45 min
Onset time [2, 17]: 15 to 30 after injection min
Duration [2, 18]: <45 min
Onset time [2, 18]: 15 to 30 after injection min
Duration [2, 19]: <45 min
Onset time [2, 19]: 15 to 30 after injection min
Duration [2, 20]: <45 min
Onset time [2, 20]: 15 to 30 after injection min
Duration [2, 21]: <45 min
Onset time [2, 21]: 15 to 30 after injection min
Duration [2, 22]: <45 min
Onset time [2, 22]: 15 to 30 after injection min
Time after injection at which the pain threshold returned to the baseline value ([2]; intraperitoneal injection, doses as in Examples 3-9): about 60 minutes
Duration [4]: <45 min
Onset time [4]: 0 to 15 after injection min
